86 molecules from a melting point compilation (Tetko et al.; mined from patent text by program, amines drawn as free bases though some values may be those of a salt) can be followed below.

As a reminder, the melting point is the temperature, or range, at which the solid turns liquid. `CCn1nc(-c2ccc(Cl)cc2[N+](=O)[O-])c2c1CCCC2=O` returned a melting point of 184 °C.
In turn, `CCOC(=O)C1=C(COCc2nnn(CCNC(=NC#N)SC)n2)NC(C)=C(C(=O)OC)C1c1cccc(Cl)c1Cl` (stereo unspecified) came in with a melting point of 78 to 80 °C.
As to `CCOC(=O)NN(C)C(=S)Nc1ccc(Cl)cc1F`, the melting point came to 151 °C.
With `CCC1c2ccccc2-c2ccccc21` the figure was 152 to 154 °C; with `Cc1ccc(OCCCCOc2ccc(C)cc2)cc1`, 104 °C.
With `CC(=O)NCc1coc2cc(NS(C)(=O)=O)c(Oc3ccccc3)cc2c1=O` the figure was 240 to 242 °C; with `CCOC(=O)C=Cc1cccc(OCc2nc(-c3ccccc3)oc2C)c1`, 91 to 92 °C.
With `CC(C)C(=O)c1ccc2oc3ncccc3c(=O)c2c1` the figure was 155 to 156 °C; with `NC(=O)c1n[nH]c2ccccc12`, 284 to 286 °C; with `CON=C(C#N)c1ccccc1COc1ccccc1C`, 53 to 54 °C.
With `COC1=C(OC)C(=O)C(CCCCCCCCCCCCO)=C(C)C1=O`, the melting point was determined as 63 °C.
With `N[C@@H](Cc1ccc(CC(F)(F)C(F)(F)F)cc1)[C@H](O)c1cccc(Cl)c1` (racemic) the figure was 109 to 110 °C; with `CC(=O)NCC1CC1c1cccc2nc(C)sc12` (stereo unspecified), 96 to 98 °C.
Take `CC(C)CC(NC(=O)C(Cc1c[nH]cn1)NC(=O)C(Cc1cccc2ccccc12)NC(=O)OCc1ccccc1)C(O)CC(=O)O` (stereo unspecified): the melting point was in the range of 191 to 192 °C.
With `CCCCNc1cc(CNCc2cccc(O)c2)cc(S(N)(=O)=O)c1Oc1ccccc1` the figure was 174 to 175 °C; with `CS(=O)(=O)c1ccc(-c2cc(-c3nc4ccccc4c(=O)n3-c3ccc(Cl)cc3)sc2N2CCOCC2)cc1`, above 275 °C.
Take `CC(C)(CCOc1ccc(Cl)cc1Cl)C(=O)Cn1cncn1`: the melting point came to 62 °C.
For `COc1cc(C(O)Cc2c(C)cncc2C)nnc1OC` (stereo unspecified), the melting point lay within 217 to 218 °C.
With `Cc1ccc(COC2C(Sc3ccccc3)OC(C)C(O)C2O)cc1` (stereo unspecified) the figure was 146 to 147 °C.
Under `O=C(O)c1cnn2c(C(F)(F)F)cc(-c3ccc(Cl)cc3)nc12` stands 238 °C; under `CSc1ncc(S(=O)(=O)NC(C)(C)C)c(Cl)n1`, 117 to 118 °C; under `CC(C)(C)OC(=O)N1CCn2c(Cl)c(-c3cccc(C#N)c3)c(C(N)=O)c2C1`, 206 to 208 °C.
With `C#CCN(Cc1cc2c(=O)[nH]c(CO)nc2cc1Cl)c1ccc(C(=O)OC(C)(C)C)cc1` the figure was 185 to 187 °C; with `CC(C)(C)CC(C)(C)c1cc(-n2nc3ccc(-c4ccc(-c5ccccc5)cc4)cc3n2)c(O)c(C(C)(C)c2ccccc2)c1`, 181 to 183 °C; with `N#Cc1cnn2cccc2c1NC1(c2ccc(Cl)cc2Cl)CC1`, 208 °C.
`CCOC(=O)COc1ccc(C(=O)Nc2cccc(Cl)c2Sc2ccccc2-c2nnn[nH]2)cc1` yielded a melting point of 180 to 182 °C.
The molecule `Cn1c(=O)n2nc(CO)cc2c2ccccc21` yielded a melting point of 183 to 184 °C.
The molecule `CC(C)c1cccc(C(C)C)c1NC(=O)NCC1(c2ccc(C(F)(F)F)cc2)CCCC1` had a melting point of 196 to 197 °C.
With `CC(C)Cn1c(=O)n(C)c(=O)c2c(SCCCO)c(C(=O)c3cccnc3)sc21` the figure was 152 to 155 °C.
Under `CNc1nc(C2(S(C)=O)C=CC=C(c3ccccc3)C2)c2cc(OC)c(OC)cc2n1` (stereo unspecified) stands 163 to 165 °C.
In turn, `Cc1oc(=O)oc1CN1CCN(c2cc3c(cc2F)c(=O)c(C(=O)O)c2n3C(c3ccccc3)S2)CC1` (stereo unspecified) displayed a melting point of 201 to 202 °C.
Under `Cc1ccc(S(=O)(=O)n2ccc3cccnc32)cc1` stands 136 to 138 °C; under `O=C(O)C1C2CCC(C2)C1C(F)(F)F` (stereo unspecified), 87 to 90 °C.
Under `Cc1cc2c(-c3ccccc3Cl)c(NC(=O)Nc3cccc([N+](=O)[O-])c3)c(=O)n(C)c2cc1C` stands 190 to 192 °C; under `CC=Cn1c2ccccc2c2ccccc21`, 57 to 58 °C.
Under `Nc1cc(C#Cc2ccc3c(C(=O)Nc4cccc(C(F)(F)F)c4)cccc3c2)ncn1` stands 217 to 220 °C.
The molecule `O=S1OC(c2ccc(F)cc2)C(Cn2cncn2)(c2ccc(Cl)cc2Cl)O1` (stereo unspecified) displayed a melting point of 170 to 171 °C.
Under `Clc1cccc2c(C3=CCNCC3)c[nH]c12` stands 197 to 201 °C.
`N#CCCNC(=O)c1cccc(-c2cncc3cc(Cc4cccc(C(F)(F)F)c4)oc23)c1` gave a melting point of 152 to 154 °C.
Under `Cc1ccc(CN(C(=O)Nc2c(C(C)C)cccc2C(C)C)c2ccc(C(C)C)cc2)c(C)c1` stands 100 °C.
`COc1ccc2[nH]c(C(=O)c3ccc(F)cc3)cc2c1` had a melting point of 167 to 169 °C.
With `Cc1cc2cc(CN3CCCCCC3)cnc2cc1NC(=O)c1ccc(-c2ccccc2)cc1F` the figure was 151 °C; with `O=C(NCCO)c1[nH]c2ccc(Cl)cc2c1-c1ccccc1F`, 178 to 180 °C.
With `CCCOC(=O)C1=C(N)NC(C)=C(C(=O)OCC)C1c1ccccc1C#N` (stereo unspecified) the figure was 182 °C; with `CC(=O)Oc1ccc(NC(=O)c2ccc(C3OCC(SC(C)C(O)(Cn4cncn4)c4ccc(F)cc4F)CO3)cc2)cc1` (stereo unspecified), 127 °C; with `Cc1oc(-c2ccccc2)nc1C=Cc1ccc(/C=C/C=O)cc1`, 191 to 192 °C.
With `CCc1cc2c(cc1C(C)=O)CC(NC(=O)C(F)(F)F)C2` (stereo unspecified) the figure was 124 to 127 °C; with `CC(=O)Nc1ccc(-c2coc3cc(OC(C)=O)c(O)cc3c2=O)cc1`, 265 to 266 °C; with `N#Cc1cnc2sc(-c3ccccc3C=O)cc2c1Nc1cccc2[nH]ccc12`, 137 to 139 °C.
Take `Nc1nc2ccccc2c2c1ncn2CCCCNC(=O)c1ccc2ncccc2c1`: the melting point was in the range of 122 to 127 °C.
With `O=C(O)c1cccc(C(CC(=O)c2ccc(F)cc2)CC(=O)c2ccc(F)cc2)c1` the figure was 205 to 207 °C; with `N#CNC(=S)Nc1ccccc1Cl`, 253 to 255 °C; with `COc1ccc(OC)c(COc2cc(Cl)sn2)c1`, 52 to 55 °C.
Under `Cc1nc2c3c(ccc2n1C)C(=O)[C@H](O)[C@@H](c1ccccc1)O3` stands 233 °C.
With `CCCc1c(OCc2ccccc2)ccc2c1OC(C(=O)OC)(C1CC1C(=O)OC)CC2` (stereo unspecified) the figure was 82 to 84 °C; with `N#Cc1ccc(N2CC(C(=O)O)OC2=O)cc1` (stereo unspecified), 204 °C.
`COc1ccc(C(=O)CN2CCN(C3CCCCO3)C2=O)cc1OC` (stereo unspecified) returned a melting point of 120 °C.
With `COCCN(C)c1nccc(Oc2ccc(NC(=O)c3cc(F)cc(N4CCOCC4)c3)c3ccccc23)n1` the figure was 96 to 98 °C.
With `CC(=O)OCC1OC(n2c(F)nc3c(N)ncnc32)C(OC(C)=O)C1OC(C)=O` (stereo unspecified) the figure was 98 to 101 °C; with `CCOC(=O)c1cn(-c2cccc(Oc3ccc(Br)cn3)c2)cn1`, 103 to 105 °C; with `O=c1n(CCCF)nnn1-c1cc(Oc2ncccn2)c(Cl)cc1F`, 111 to 113 °C.
As for `Oc1ccc2nc(-c3ccc(Cl)cc3)oc2c1`, the melting point was in the range of 273 to 274 °C.
For `CC(C)[C@H](NC(=O)OCc1ccccn1)C(=O)N[C@@H](Cc1ccccc1)[C@H](O)[C@H](O)[C@H](Cc1ccccc1)NC(=O)OCc1cccnc1`, the melting point lay in the range of 166 to 168 °C.
Under `CCOc1nn(-c2ccc(C(F)(F)F)cn2)cc1CCCOc1nn(-c2ccccc2)cc1CC(=O)O` stands 117 to 118 °C; under `CC(n1ncn(-c2ccc(N3CCN(c4ccc(O)cc4)CC3)cc2)c1=O)C(F)(F)F` (stereo unspecified), 215 °C; under `CNC(=O)Nc1cccc(C2=NC(C)(C)Cc3cc(OC)c4c(c32)CC(C)(C)O4)c1`, 125 to 127 °C.
Under `CC(C)(C)OC(=O)N[C@H]1CC[C@H](CC(=O)O)CC1` stands 161 to 163 °C; under `Oc1ccc(-c2cc3cc(O)ccc3o2)c(-c2ccc(OCc3ccccc3)cc2)c1`, 186 to 187 °C; under `Cc1ccc(-c2cncnc2Cl)cc1`, 67 to 70 °C.
Regarding `O=C1CNc2ncc(I)cc2N1Cc1cc(C(F)(F)F)ccc1Cl`, the melting point was 252 to 253 °C.
Under `Cc1cc(CCCCCCO)cc(C(C)(C)C)c1O` stands 45 °C.
Consider `C#CC1(O)C=CC2C3CCC4=CC(=O)CCC4(C)C3CCC21C` (stereo unspecified), for which the melting point is 206 °C.
On to `O=[N+]([O-])c1ccc(NS(=O)(=O)c2cccc(C(F)(F)F)c2)c(Cl)c1`, for which the melting point fell in the range of 126 to 127 °C.
Under `CCOC(=O)N1N=C(c2ccc(N)cc2)c2cc(Br)ccc2CC1C` (stereo unspecified) stands 114 to 117 °C; under `CCCCCCCCCCCCCCC(CCCCC(=O)O)CCCCC(=O)O`, 48 to 50 °C.
Under `c1ccc(COc2cnc(N3CCNCC3)nc2)cc1` stands 94 to 97 °C; under `CCCOc1ccc(-c2ccc(=O)[nH]n2)cc1OC`, 186 °C; under `CC(C)C(NC(=O)OC(C)(C)C)C(=O)OC1CC(n2cc(C=CBr)c(=O)[nH]c2=O)OC1CCl` (stereo unspecified), 87 to 88 °C.
Turning to `NNc1ccc(Cl)cc1F`, the melting point fell in the range of 57 to 63 °C.
Under `O=C(NCCOc1ccc(CC(Sc2nc3ccccc3o2)C(=O)O)cc1)c1ccc(-c2ccccn2)cc1` (stereo unspecified) stands 66 to 67 °C; under `CC1(C)CC(N)(C(N)=O)CC(C)(C)N1`, 142 to 144 °C; under `N#Cc1cnc2cc(F)c(OCc3ccccc3)cc2c1Cl`, 159 to 160 °C.
Under `CCC(NS(=O)(=O)c1ccc(Cl)cc1)P(=O)(Oc1ccccc1)Oc1ccccc1` (stereo unspecified) stands 136 to 138 °C.
Under `CC1(C)CS(=O)CC(C)(C)c2[nH]c(-c3ccccc3)nc21` stands 273 to 275 °C; under `CCOC(=O)c1c(C(F)(F)F)nc(C(F)(F)F)c(C(=O)OCC)c1N`, 52 to 58 °C; under `COc1cc(-c2cnc3[nH]cc(C(=O)C45CC6CC(CC(C6)C4)C5)c3n2)cc(OC)c1OC`, 267 to 268 °C.
